Source: patent US20110212434A1, “NOVEL HIV-BASED RECOMBINANT VIRAL CLONES AND USE THEREOF IN ANALYTICAL METHODS” (priority 2004, published 2011)

System: virus with the mutations M41L, K07R, T215F, K219Q
Test: Determination system for phenotypic resistances to antiretroviral drugs (renilla activity, recombinant viral clones)
Type: cell-based, HIV
Conditions: K219Q versus wild type virus, FIG. 2b
Description: It can be schematically seen in FIGS. 1a and 1b how the viral particles are produced in culture supernatants during the 48 hours following transfection of the recombinat virus carrying viral sequences amplified from patients's plasma in 293T cells. The 293T cell line was obtained from the Deposit of the ATCC. The progeny of recombinant viruses are collected 48 hours after transfection in and used to infect the SSPA-B7 clone as target. This cellular clone was obtained by the applicant from the MT-2 cell line by means of transfection of an expression vector of the gene CCR5 provided with a resistance marker for Genetycin. Expression of both major viral coreceptors (CCR5 as a transgene and CXCR4 naturally) allows the infection with viral carrying different envelopes that use CCR5, CXCR4 receptors or both. […] The capacity of the viruses to complete a replication cycle is quantified by measuring the luciferase activity in the target cells. When phenotypic resistance to protease inhibitors is analyzed, the drug should be added to the producer cell (293-T) because viral morphogenesis driven by the protease is generated in this step of the viral cycle. In contrast, phenotypic resistance towards inhibitors of reverse transcriptase and of entry is measured by adding the drugs to the infected cells because such processes (entry and retrotranscription) take place in the target cell. […]

SMILES: Cc1cn([C@H]2C[C@H](N=[N+]=[N-])[C@@H](CO)O2)c(=O)[nH]c1=O [AZT]
- Fold (AZT resistance): 36
